Patent publication US10047104B2, “Bicyclic heterocyclyl derivatives as IRAK4 inhibitors” (Aurigene Discovery Technologies Limited, priority 2014, dated 2018)

Target: T1, recombinant IRAK-4 kinase (Homo sapiens, UniProt Q9NWZ3)
T1 construct: purchased Millipore, USA
T1 sequence (Q9NWZ3 1-460): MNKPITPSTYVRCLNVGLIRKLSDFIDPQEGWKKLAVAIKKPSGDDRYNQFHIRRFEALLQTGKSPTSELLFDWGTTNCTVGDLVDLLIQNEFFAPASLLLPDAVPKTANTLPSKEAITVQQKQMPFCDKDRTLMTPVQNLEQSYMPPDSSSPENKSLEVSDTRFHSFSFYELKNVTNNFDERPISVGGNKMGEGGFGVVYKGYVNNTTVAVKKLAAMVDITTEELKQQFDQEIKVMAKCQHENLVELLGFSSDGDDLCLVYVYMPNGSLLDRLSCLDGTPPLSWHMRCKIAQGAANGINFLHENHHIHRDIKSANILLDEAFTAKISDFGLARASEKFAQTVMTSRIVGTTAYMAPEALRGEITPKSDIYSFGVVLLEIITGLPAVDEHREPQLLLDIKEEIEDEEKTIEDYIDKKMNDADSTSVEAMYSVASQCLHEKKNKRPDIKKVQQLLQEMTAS
Experiment: IRAK-4 Biochemical Assay (TR-FRET)
Conditions: 5 ng IRAK-4 kinase, 100 nM Biotin Histone H3, 20 μM ATP, 30 minutes pre-incubation, read-out: IC50 values for IRAK4 activity
Description: Compounds were tested for their potential to inhibit IRAK-4 enzyme in a TR-FRET assay using recombinant IRAK-4 kinase from Millipore, USA. The assay buffer was 50 mM Tris-HCl pH 7.5, 20 mM MgCl2, 1 mM EGTA, 2 mM DTT, 3 mM MnCl2 and 0.01% Tween20. 5 ng of IRAK-4 kinase was used for the assay. After pre-incubation of enzyme with test compound for 30 minutes at room temperature, a substrate mix containing 100 nM Biotin Histone H3 (Millipore, USA) and 20 μM ATP (Sigma, USA) was added and the reaction was incubated for 30 minutes. Post incubation, the reaction was stopped by the addition of stop mix containing 40 mM EDTA, 1 nM of Europium-Anti-Phospho-Histone H3 (Ser10) antibody (Perkin Elmer, USA) and 20 nM Sure Light Allophycocyanin-Streptavidin (Perkin Elmer, USA).

For `Cc1cc(-c2nc(C(=O)Nc3cc4sc(N5C[C@@H](C)O[C@@H](C)C5)nc4nc3N3CCCCC3)co2)ccn1` [Example 53, N-(2-((2S,6R)-2,6-dimethylmorpholino)-5-(piperidin-1-yl)thiazolo[4,5-b]pyridin-6-yl)-2-(2-methylpyridin-4-yl)oxazole-4-carboxamide], the IC50 was less than 50 nM.

In the case of `Cc1cc(-c2nc(C(=O)Nc3cc4sc(N5CCOCC5)nc4nc3N3CCC(O)CC3)co2)ccn1` [Example 84, N-(5-(4-hydroxypiperidin-1-yl)-2-morpholinothiazolo[4,5-b]pyridin-6-yl)-2-(2-methylpyridin-4-yl)oxazole-4-carboxamide], the IC50 is reported as less than 50 nM.

`Cc1cc(-c2nc(C(=O)Nc3cc4oc(N5CCCCC5)nc4nc3N3CCCC3)co2)ccn1` [Example 111, 2-(2-methylpyridin-4-yl)-N-(2-(piperidin-1-yl)-5-(pyrrolidin-1-yl)oxazolo[4,5-b]pyridin-6-yl)oxazole-4-carboxamide] was tested, and the IC50 was less than 50 nM.

`Cc1ncccc1-c1nc(C(=O)Nc2cc3oc(N4CCCCC4)nc3nc2N2CCCCC2)co1` [Example 27, N-(2,5-di(piperidin-1-yl)oxazolo[4,5-b]pyridin-6-yl)-2-(2-methylpyridin-3-yl)oxazole-4-carboxamide] gave an IC50 of less than 50 nM.

`COc1cc(-c2nc(C(=O)Nc3cc4sc(N5CCCCC5)nc4nc3N3CCCCC3)co2)ccn1` [Example 56, N-(2,5-di(piperidin-1-yl)thiazolo[4,5-b]pyridin-6-yl)-2-(2-methoxypyridin-4-yl)oxazole-4-carboxamide] showed an IC50 of less than 50 nM.

For `Cc1cc(-c2ccc(C(=O)Nc3cc4sc(N5CCOCC5)nc4nc3N3CC[C@H](O)C3)s2)ccn1` [Example 81, (S)—N-(5-(3-hydroxypyrrolidin-1-yl)-2-morpholinothiazolo[4,5-b]pyridin-6-yl)-5-(2-methylpyridin-4-yl)thiophene-2-carboxamide], the IC50 was greater than 100 nM.

`Cc1cc(-c2nc(C(=O)Nc3cc4sc(N5CCOCC5)nc4nc3N3C4CCC3CC(O)C4)co2)ccn1` (stereo not shown) [Example 123, N-(5-(3-hydroxy-8-azabicyclo[3.2.1]octan-8-yl)-2-morpholinothiazolo[4,5-b]pyridin-6-yl)-2-(2-methylpyridin-4-yl)oxazole-4-carboxamide] was tested, and the IC50 was less than 50 nM.

In the case of `Cc1cc(-c2nc(C(=O)Nc3cc4sc(N5CCCCC5)nc4nc3N3CCCC3)co2)ccn1` [Example 88, 2-(2-methylpyridin-4-yl)-N-(2-(piperidin-1-yl)-5-(pyrrolidin-1-yl)thiazolo[4,5-b]pyridin-6-yl)oxazole-4-carboxamide], the IC50 is reported as less than 50 nM.

`Cc1cc(-c2nc(C(=O)Nc3cc4sc(N5CCOCC5)nc4nc3N3CCCCCC3)co2)ccn1` [Example 91, N-(5-(azepan-1-yl)-2-morpholinothiazolo[4,5-b]pyridin-6-yl)-2-(2-methylpyridin-4-yl)oxazole-4-carboxamide] gave an IC50 of less than 50 nM.

In the case of `Cc1cc(-c2ccc(C(=O)Nc3cc4sc(N5CCOCC5)nc4nc3N3CCC[C@@H](O)C3)o2)ccn1` [Example 95, (R)—N-(5-(3-hydroxypiperidin-1-yl)-2-morpholinothiazolo[4,5-b]pyridin-6-yl)-5-(2-methylpyridin-4-yl)furan-2-carboxamide], the IC50 is reported as less than 50 nM.

`C[C@H](O)Cn1cc(-c2cccc(C(=O)Nc3cc4sc(N5CCOCC5)nc4nc3N3CCCCC3)n2)cn1` [Example 96, (S)-6-(1-(2-hydroxypropyl)-1H-pyrazol-4-yl)-N-(2-morpholino-5-(piperidin-1-yl)thiazolo[4,5-b]pyridin-6-yl)picolinamide] was tested, and the IC50 was less than 50 nM.

`CC(=O)Nc1cc(-c2nc(C(=O)Nc3cc4sc(N5CCOCC5)nc4nc3N3CCC(O)CC3)co2)ccn1` [Example 125, 2-(2-acetamidopyridin-4-yl)-N-(5-(4-hydroxypiperidin-1-yl)-2-morpholinothiazolo[4,5-b]pyridin-6-yl)oxazole-4-carboxamide] gave an IC50 of less than 50 nM.

With `Cc1cnccc1-c1nc(C(=O)Nc2cc3oc(N4CCCCC4)nc3nc2N2CCCCC2)co1` [Example 34, N-(2,5-di(piperidin-1-yl)oxazolo[4,5-b]pyridin-6-yl)-2-(3-methylpyridin-4-yl)oxazole-4-carboxamide] the IC50 was less than 50 nM.
